Assay results: patent publication US20050137220A1 (Pharmacia Corporation, priority 2003, published 2005)
Structures can show the parent of a compound that is named as a salt.

Biological target: MK-2 (Homo sapiens, UniProt P49137)
Experiment: Determination of MK-2 IC50 (phosphorylation of HSP-peptide, anion exchange resin capture assay)
Format: biochemical
Conditions: additional values are replicate IC50 experiments; mixture of stereoisomers implied unless otherwise noted; read-out: MK-2 Avg. IC50

Sequence of MK-2 (P49137 whole entry, species assumed): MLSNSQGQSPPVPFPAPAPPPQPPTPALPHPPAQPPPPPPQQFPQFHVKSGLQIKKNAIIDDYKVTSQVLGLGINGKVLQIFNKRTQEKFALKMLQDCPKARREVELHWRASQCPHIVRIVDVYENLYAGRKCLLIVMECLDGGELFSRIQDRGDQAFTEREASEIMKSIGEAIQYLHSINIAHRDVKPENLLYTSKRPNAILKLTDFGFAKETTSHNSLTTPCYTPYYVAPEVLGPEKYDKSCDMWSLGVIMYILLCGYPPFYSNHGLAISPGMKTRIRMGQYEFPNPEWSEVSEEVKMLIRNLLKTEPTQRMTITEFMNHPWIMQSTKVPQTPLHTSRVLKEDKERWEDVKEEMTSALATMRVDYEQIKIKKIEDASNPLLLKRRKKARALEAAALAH

| SMILES | IC50 [µM] |
| --- | --- |
| O=C(O)C1NCCc2c1[nH]c1ccc(OCc3ccc(Cl)cc3)cc21 (stereo not drawn) [Example 136, 6-[(4-chlorobenzyl)oxy]-2,3,4,9-tetrahydro-1H-beta-carboline-1-carboxylic acid] | 112 |
| O=C(O)C1NCCc2c1[nH]c1ccc(OCc3ccc(C(F)(F)F)cc3)cc21 (stereo not drawn) [Example 138, 6-{[4-(trifluoromethyl)benzyl]oxy}-2,3,4,9-tetrahydro-1H-beta-carboline-1-carboxylic acid hydrochloride hydrate] | 115 |
| O=C(O)C1NCCc2c1[nH]c1ccc(OCCCc3ccccc3)cc21 (stereo not drawn) [Example 139, 6-(3-phenylpropoxy)-2,3,49-tetrahydro-1H-beta-carboline-1-carboxylic acid] | 117 |
| COc1ccc2[nH]c3c(c2c1)CCN(Cc1ccc(C(F)(F)F)cc1)C3C(=O)O (stereo not drawn) [Example 141, 6-methoxy-2-[4-(trifluoromethyl)benzyl]-2,3,4,9-tetrahydro-1H-beta-carboline-1-carboxylic acid] | 119 |
| COC(=O)c1cccc2[nH]c3c(c12)CCNC3C(=O)O (stereo not drawn) [Example 142, 5-(methoxycarbonyl)-2,3,4,9-tetrahydro-1H-beta-carboline-1-carboxylic acid hydrochloride hydrate] | 121 |
| COc1ccc(Oc2ccc3[nH]c4c(c3c2)CCC/C4=N\O)cc1 [Example 144, 6-(4-methoxyphenoxy)-2,3,4,9-tetrahydro-1H-carbazol-1-one oxime] | 130 |
| COC(=O)CCC1Cc2c([nH]c3ccc(OC)cc23)C(=O)N1 (stereo not drawn) [Example 147, methyl 3-(6-methoxy-1-oxo-2,3,4,9-tetrahydro-1H-beta-carbolin-3-yl)propanoate] | 136 |
| CCCC1Cc2c([nH]c3ccc(OC)cc23)C(C(=O)O)N1 (stereo not drawn) [Example 148, 6-methoxy-3-propyl-2,3,4,9-tetrahydro-1H-beta-carboline-1-carboxylic acid] | 137 |
| COc1ccc2[nH]c3c(c2c1)CCNS3(=O)=O [Example 153, 6-methoxy-2,3,4,9-tetrahydro[1,2]thiazino[6,5-b]indole 1,1-dioxide] | 155 |
| ON=C1CCCc2c1[nH]c1ccc(C(F)(F)F)cc21 [Example 154, 6-(trifluoromethyl)-2,3,4,9-tetrahydro-1H-carbazol-1-one oxime] | 156 |
| CCOC(=O)CNC(=O)COc1ccc2[nH]c3c(c2c1)CCNC3C(=O)O (stereo not drawn) [Example 155, 6-[2-(2-ethoxy-2-oxoethylamino)-2-oxoethoxy]-2,3,4,9-tetrahydro-1H-beta-carboline-1-carboxylic acid hydrochloride] | 164 |
| COc1ccc2[nH]c3c(c2c1)CCN(C(C)C)C3C(=O)O (stereo not drawn) [Example 157, sodium 2-isopropyl-6-methoxy-2,3,4,9-tetrahydro-1H-beta-carboline-1-carboxylate] | 170 |
| COc1ccc2[nH]c3c(c2c1)CCN1C(=O)NC(=O)C31 (stereo not shown) [Example 158, 8-methoxy-5,6,11,11b-tetrahydro-1H-imidazo[1′,5′:1,2]pyrido[3,4-b]indole-1,3(2H)-dione] | 175 |
| COC(=O)c1cccc(COc2ccc3[nH]c4c(c3c2)CCNC4C(=O)O)c1 (stereo not drawn) [Example 159, 6-{[3-(methoxycarbonyl)benzyl]oxy}-2,3,4,9-tetrahydro-1H-beta-carboline-1-carboxylic acid hydrochloride] | 182 |
| COc1ccc2[nH]c3c(c2c1)CCNC3C(=O)NN (stereo not drawn) [Example 161, 6-methoxy-2,3,4,9-tetrahydro-1H-beta-carboline-1-carbohydrazide] | > 200 |
| COC(=O)C12CCC(=O)N1CCc1c2[nH]c2ccc(OC)cc12 (stereo not shown) [Example 162, methyl 8-methoxy-3-oxo-2,3,6,11-tetrahydro-1H-indolizino[8,7-b]indole-11b(5H)-carboxylate] | > 200 |
| COc1ccc2[nH]c3c(c2c1)CCN1C(=O)CCC31C(=O)O (stereo not shown) [Example 163, 8-methoxy-3-oxo-2,3,6,11-tetrahydro-1H-indolizino[8,7-b]indole-11b(5H)-carboxylic acid] | > 200 |
| COC(=O)C1(CCl)NCCc2c1[nH]c1ccccc21 (stereo not drawn) [Example 164, methyl 1-(chloromethyl)-2,3,4,9-tetrahydro-1H-beta-carboline-1-carboxylate] | > 200 |
| COc1ccc2[nH]c3c(c2c1)CCNC3CC(=O)O (stereo not drawn) [Example 165, (6-methoxy-2,3,4,9-tetrahydro-1H-beta-carbolin-1-yl)acetic acid hydrochloride] | > 200 |
| COc1ccc2[nH]c3c(c2c1)CCNC3Cc1nnn[nH]1 (stereo not drawn) [Example 166, 6-methoxy-1-(1H-tetraazol-5-ylmethyl)-2,3,49-tetrahydro-1H-beta-carboline hydrochloride hydrate] | > 200 |
| COC(=O)CC1NCCc2c1[nH]c1ccc(OC)cc21 (stereo not drawn) [Example 167, methyl(6-methoxy-2,3,4,9-tetrahydro-1H-beta-carbolin-1-yl)acetate] | > 200 |
| COC(=O)C1c2[nH]c3ccc(OC)cc3c2CCN1Cc1ccccc1 (stereo not drawn) [Example 168, methyl 2-benzyl-6-methoxy-2,3,4,9-tetrahydro-1H-beta-carboline-1-carboxylate] | > 200 |

| SMILES | IC50 [µM] |
| --- | --- |
| COC(=O)C1c2c(c3cc(OC)ccc3n2CO)CCN1C (stereo not drawn) [Example 169, methyl 9-(hydroxymethyl)-6-methoxy-2-methyl-2,3,4,9-tetrahydro-1H-beta-carboline-1-carboxylate] | > 200 |
| CCOC(=O)C1(C(=O)OCC)NCCc2c1[nH]c1ccc(OC)cc21 [Example 171, diethyl 6-methoxy-2,3,4,9-tetrahydro-1H-beta-carboline-1,1-dicarboxylate] | > 200 |
| COC(=O)C1(Cc2ccc(Cl)cc2)c2[nH]c3ccc(O)cc3c2CCN1C (stereo not drawn) [Example 173, methyl 1-[4-chlorobenzyl)-6-hydroxy-2-methyl-2,3,4,9-tetrahydro-1H-beta-carboline-1-carboxylate] | > 200 |
| COC(=O)C1c2[nH]c3ccc(O)cc3c2CCN1C (stereo not drawn) [Example 174, methyl 6-hydroxy-2-methyl-2,3,4,9-tetrahydro-1H-beta-carboline-1-carboxylate] | > 200 |
| CCOC(=O)C1Cc2c([nH]c3ccc(OC)cc23)C(C(=O)O)N1 (stereo not drawn) [Example 177, 3-(ethoxycarbonyl)-6-methoxy-2,3,4,9-tetrahydro-1H-beta-carboline-1-carboxylic acid] | > 200 |
| COc1ccc2[nH]c3c(c2c1)CCNC3(CCC(=O)O)C(=O)O (stereo not drawn) [Example 178, 1-(2-carboxyethyl)-6-methoxy-2,3,4,9-tetrahydro-1H-beta-carboline-1-carboxylic acid] | > 200 |
| COc1ccc2[nH]c3c(c2c1)CCNC3(CCCC(=O)O)C(=O)O (stereo not drawn) [Example 179, 1-(3-carboxypropyl)-6-methoxy-2,3,4,9-tetrahydro-1H-beta-carboline-1-carboxylic acid] | > 200 |
| COc1ccc2[nH]c3c(c2c1)CCN1C3C(=O)NC1(C)C (stereo not shown) [Example 180, 8-methoxy-3,3-dimethyl-2,3,5,6,11,11b-hexahydro-1H-imidazo[1′,5′:1,2]pyrido[3,4-b]indol-1-one] | > 200 |
| COC(=O)C1c2[nH]c3ccc(OC)cc3c2CCN1CCCO[Si](C)(C)C(C)(C)C (stereo not drawn) [Example 181, methyl 2-(3-{[tert-butyl(dimethyl)silyl]oxy}propyl)-6-methoxy-2,3,4,9-tetrahydro-1H-beta-carboline-1-carboxylate] | > 200 |
| COc1ccc2c(c1)c1c(n2C)C(C(=O)O)NCC1 (stereo not drawn) [Example 182, 6-methoxy-9-methyl-2,3,4,9-tetrahydro-1H-beta-carboline-1-carboxylic acid] | > 200 |
| COc1ccc2[nH]c3c(c2c1C)CCNC3C(=O)O (stereo not drawn) [Example 183, 6-methoxy-5-methyl-2,3,4,9-tetrahydro-1H-beta-carboline-1-carboxylic acid hydrochloride] | > 200 |
| COC(=O)C1NC(CO)Cc2c1[nH]c1ccc(OC)cc21 (stereo not drawn) [Example 184, methyl 3-(hydroxymethyl)-6-methoxy-2,3,4,9-tetrahydro-1H-beta-carboline-1-carboxylate] | > 200 |
| COc1ccc2[nH]c3c(c2c1)C(Cc1ccc(OC(F)(F)F)cc1)CNC3C(=O)O (stereo not drawn) [Example 185, 6-methoxy-4-[4-(trifluoromethoxy)benzyl]-2,3,4,9-tetrahydro-1H-beta-carboline-1-carboxylic acid] | > 200 |
| COc1ccc2[nH]c3c(c2c1)C1(CCCCC1)CNC3C(=O)O (stereo not shown) [Example 186, 2′,3′,4′,9′-tetrahydro-6′-methoxy-spiro[cyclohexane-1,4′-[4H]pyrido[3,4-b]indole]-1-carboxylic acid] | > 200 |
| COc1ccc2[nH]c3c(c2c1)CC(CN(C)C)NC3C(=O)O (stereo not drawn) [Example 187, 3-[(dimethylamino)methyl]-6-methoxy-2,3,4,9-tetrahydro-1H-beta-carboline-1-carboxylic acid trifluoroacetate] | > 200 |
| CCCC1Cc2c([nH]c3ccc(OC)cc23)C(C(=O)O)N1 (stereo not drawn) [Example 190, 6-methoxy-3-propyl-2,3,4,9-tetrahydro-1H-beta-carboline-1-carboxylic acid] | > 200 |
| COc1ccc2[nH]c3c(c2c1)C1CCCCC1NC3C(=O)O (stereo not shown) [Example 191, 10-methoxy-2,3,4,4a,5,6,7,11c-octahydro-1H-indolo[2,3-c]quinoline-6-carboxylic acid] | > 200 |
| COc1ccc2[nH]c3c(c2c1)CCN1CCNC(=O)C31 (stereo not shown) [Example 192, 9-methoxy-3,4,6,7,12,12b-hexahydropyrazino[1′,2′:1,2]pyrido[3,4-b]indol-1(2H)-one] | > 200 |
| COc1ccc2[nH]c3c(c2c1)CC(Cc1ccccc1)NC3C(=O)O (stereo not drawn) [Example 193, 3-benzyl-6-methoxy-2,3,4,9-tetrahydro-1H-beta-carboline-1-carboxylic acid] | > 200 |
| O=C(O)C1NCCc2c1[nH]c1c(OCc3ccccc3)cccc21 (stereo not drawn) [Example 194, 8-(benzyloxy)-2,3,4,9-tetrahydro-1H-beta-carboline-1-carboxylic acid] | > 200 |
| COC(=O)C1c2[nH]c3ccc(OC)cc3c2CCN1CCNC(=O)OC(C)(C)C (stereo not drawn) [Example 195, methyl 2-{2-[(tert-butoxycarbonyl)amino]ethyl}-6-methoxy-2,3,4,9-tetrahydro-1H-beta-carboline-1-carboxylate] | > 200 |
